# Measurements as given in patent US5254584A, “N-acetonylbenzamides and their use as fungicides” (Rohm and Haas Company, priority 1992, dated 1993).
# What was measured:
# Pythium ultimum = experiment: Fungitoxicity assay against Pythium ultimum (in vitro, mycelial dry weight); format: cell-based; conditions: Globisporangium ultimum, 48 hours at 25° C., read-out: Pythium EC50
# Experimental: The compounds of Examples 1-20 were tested in vitro for fungicidal activity and phytotoxicity. A. The compounds were tested in vitro for fungicidal activity against Pythium ultimum, Botrytis cinerea and Venturia inaequalis. Fungitoxicity assay against Pythium ultimum: A dilution series of test compound was prepared in dimethylsulfoxide, and 0.1 milliliter (ml) of each dilution was added to 19.9 ml of a liquid asparagine-sucrose broth ([…]. and Katznelson, K., 1971, Can. J. […] Each plate was inoculated with a mycelial plug, 7 millimeters (mm) in diameter, taken from the growing edge of a culture of Pythium ultimum grown on potato dextrose agar. Two replicate plates were used for each treatment. The increase in mycelial dry weight was determined after growth for 48 hours at 25° C. with shaking on a gyrotary shaker at 60 revolutions per minute (rpm). EC50 values were calculated from dose response curves. As used herein, the terminology "EC50" means the concentration of test compound required to inhibit growth by 50% as compared to a control lacking the test compound. Results of the testing for fungicidal activity against the above named fungi are set forth below in Table 3 as Pythium EC50 (ppm), Botrytis EC50 (ppm) and Venturia MIC (ppm), respectively.
# [1] = Tobacco root assay for phytotoxicity (in vitro root elongation); conditions: 7 days, 27° C., read-out: Tob. EC50
# Experimental: The compounds of Examples 1-20 were tested in vitro for fungicidal activity and phytotoxicity.
# B. The compounds were tested in vitro for phytotoxicity in a tobacco root elongation assay.
# Tobacco root assay for Phytotoxicity:
# A dilution series of test compound was prepared in dimethylsulfoxide and 20 ul of each dilution was added to 20 ml of molten nutrient medium, consisting of Murashige and Skoog salt base, 2% sucrose and 1% agar, to give the desired concentrations of test compound. The mixtures were poured immediately into 9 cm diameter petri dishes. Surface-sterilized tobacco seeds were placed on each plate (20 seeds per plate) and the plates incubated in a vertical position in a 27° C. incubator with a 16 hour photoperiod. After 7 days the mean root lengths were calculated, and EC50 values determined from dose response curves.
# Results of the tobacco root assay are set forth below in Table 3 as Tob. EC50 (ppm).
# Venturia inaequalis = experiment: Fungitoxicity assay against Venturia inaequalis (in vitro, microtiter MIC); format: cell-based; conditions: 168 h, minimum inhibitory concentration, 7 days at 25° C.
# Experimental: The compounds of Examples 1-20 were tested in vitro for fungicidal activity and phytotoxicity. A. The compounds were tested in vitro for fungicidal activity against Pythium ultimum, Botrytis cinerea and Venturia inaequalis. Fungitoxicity assay against Venturia inaequalis: Test compounds were dissolved in dimethylsulfoxide at 1 milligram per milliliter (mg/ml), and 50 ul added to 950 ul of yeast extract-dextrose medium (YED, 0.4% yeast extract, 2% dextrose) to give 50 part per million (ppm) solutions. Minimum inhibitory concentration (MIC) values were determined using a microtiter assay with twofold serial dilutions of the prepared 50 ppm solutions (100 ul) in YED medium. Inoculum consisted of a spore suspension of V. inaequalis in YED medium at 2.5×10^5 spores per ml. […] Results of the testing for fungicidal activity against the above named fungi are set forth below in Table 3 as Pythium EC50 (ppm), Botrytis EC50 (ppm) and Venturia MIC (ppm), respectively.
# Plasmopara viticola = experiment: Downy Mildew of Grapes (GDM); format: in vivo; conditions: 300 g/Ha; 7-8 days; grape
# lettuce plants = experiment: In vivo phytotoxic activity, foliar spray, lettuce; parameters: key: +: indicating presence of a plant growth regulatory effect as compared to a control to which a solvent mixture (acetone/water/methanol) lacking the test compound was applied; 0: A zero indicates no apparent effect; conditions: foliar spray 2200 g/Ha, seven days after application
# Experimental: The compounds of Examples 1 and 12 were tested in vivo for phytotoxic activity by applying the compounds to the foliage of cucumber, tomato, bean, lettuce and strawberry plants as a spray at a rate of 2200 g/Ha. The plants were evaluated seven days after spray application of the compounds.
# Phototoxicity scores are set forth below in Table 6. The phytotoxicity scores use a symbol, "+", indicating presence of a plant growth regulatory effect as compared to a control to which a solvent mixture (acetone/water/methanol) lacking the test compound was applied. A zero indicates no apparent effect. Each score is a composite representing the mode value for three replicate plants.
smiles,measurement,setting,value
"CCC(C)(NC(=O)c1cc(C)cc(C=NOC)c1)C(=O)CCl (centres unmarked) [Example 12, N-[3'-(1'-chloro-3'-methyl-2'-oxopentan)]-3-methoxyiminomethyl-5-methylbenzamide]",IC50,Pythium ultimum,0.16 µg/mL
same,IC50 at 168 h,[1],0.38 µg/mL
same,MIC,Venturia inaequalis,0.1 µg/mL
same,GDM percent disease control,Plasmopara viticola,100%
same,"phytotoxicity score, Lettuce",lettuce plants,0
